Measured values published in ChEMBL document CHEMBL5705903, “A DNA Hypomethylation Signature Predicts Antitumor Activity of LSD1 Inhibitors in SCLC” (Cancer Cell, 2015).
Activity calls are given as the source filed them. The rule behind the calls is not given here.

Columns and labels:
[1] = Effect on cleaved PARP level in human NCI-H526 cells assessed as fold change at 1000 nM measured after 14 days by Western blot analysis (reference value: 1.00); format: functional; details: time 14 day
[2] = Effect on cleaved PARP level in human NCI-H1694 cells assessed as fold change at 10 nM measured after 14 days by Western blot analysis (reference value: 1.00); format: functional; details: time 14 day
NCI-H1417 [3] = experiment: Cell growth inhibition of human NCI-H1417 cells measured upto 10 days; format: functional, cell-based; details: time <= 10.0 day
NCI-H526 [4] = experiment: Effect on NCAM gene expression in human NCI-H526 cells at 1 uM measured after 4 days by qRT-PCR analysis; format: functional, cell-based; details: time 4.0 day
[5] = Effect on cleaved PARP level in human COLO-668 cells assessed as relative expression at 1000 nM measured after 7 days by Western blot analysis (reference value: […]); format: functional; details: time 7 day
[6] = Toxicity in dog assessed as morbidity measured for 28 days; design: species or system Canis lupus familiaris; details: in vivo, 672 h, time 28 day
NCI-H1417 [7] = experiment: In vivo inhibition of LSD1 in human NCI-H1417 cells xenografted in nude mouse assessed as change in SAMD5 gene expression measured after 24 hrs post single administration by qRT-PCR analysis; format: functional, organism-based; details: dose 0.02-135 mg/kg
[8] = Toxicity in rat assessed as suppression of neutrophil in bone marrow measured for 28 days; format: cell-based; details: 672 h, time 28 day
[9] = Effect on cleaved PARP level in human NCI-H146 cells assessed as fold change at 100 nM measured after 10 days by Western blot analysis (reference value: 1.00); format: functional; details: time 10 day
NCI-H1417 [10] = experiment: Antitumor activity against human NCI-H1417 cells xenografted in nude mouse assessed as decrease in GRP expression at 1.5 mg/kg administrated daily by qRT-PCR analysis; format: functional, organism-based; details: time 1-14 day, TDE = time-dependent effect
[11] = Effect on cleaved PARP level in human NCI-H1694 cells assessed as fold change at 1000 nM measured after 10 days by Western blot analysis (reference value: 1.00); format: functional; details: time 10 day
[12] = Effect on cleaved PARP level in human NCI-H69 cells assessed as relative expression at 100 nM measured after 14 days by Western blot analysis (reference value: 0.03); format: functional; details: time 14 day
[13] = Effect on cleaved PARP level in human NCI-H889 cells assessed as relative expression at 100 nM measured after 7 days by Western blot analysis (reference value: 0.34); format: functional; details: time 7 day
[14] = Effect on cleaved PARP level in human NCI-H1694 cells assessed as fold change at 100 nM measured after 7 days by Western blot analysis (reference value: 1.00); format: functional; details: time 7 day
[15] = Effect on cleaved PARP level in human NCI-H1417 cells assessed as relative expression at 100 nM measured after 14 days by Western blot analysis (reference value: 0.38); format: functional; details: time 14 day
[16] = Effect on cleaved PARP level in human NCI-H1694 cells assessed as fold change at 10 nM measured after 10 days by Western blot analysis (reference value: 1.00); format: functional; details: time 10 day
[17] = Effect on cleaved PARP level in human NCI-H526 cells assessed as fold change at 100 nM measured after 14 days by Western blot analysis (reference value: 1.00); format: functional; details: time 14 day
NCI-H526 [18] = experiment: In vivo inhibition of LSD1 in human NCI-H526 cells xenografted in nude mouse assessed as change in ODZ2 gene expression administrated daily for 5 days by qRT-PCR analysis; format: functional, organism-based; details: dose 0.02-135 mg/kg, time 5.0 day
[19] = Toxicity in rat assessed as declining clinical condition measured for 28 days; details: in vivo, 672 h, time 28 day
[20] = Effect on cleaved PARP level in human NCI-H69 cells assessed as relative expression at 10 nM measured after 7 days by Western blot analysis (reference value: 0.02); format: functional; details: time 7 day
[21] = Effect on cleaved PARP level in human NCI-H524 cells assessed as relative expression at 1000 nM measured after 10 days by Western blot analysis (reference value: 0.95); format: functional; details: time 10 day
[22] = Effect on cleaved PARP level in human NCI-H146 cells assessed as fold change at 10 nM measured after 7 days by Western blot analysis (reference value: 1.00); format: functional; details: time 7 day
[23] = Effect on cleaved PARP level in human NCI-H1694 cells assessed as relative expression at 1000 nM measured after 10 days by Western blot analysis (reference value: .31); format: functional; details: time 10 day
[24] = Effect on cleaved PARP level in human NCI-H69 cells assessed as fold change at 100 nM measured after 7 days by Western blot analysis (reference value: 1.00); format: functional; details: time 7 day
[25] = Effect on cleaved PARP level in human NCI-H1694 cells assessed as fold change at 10 nM measured after 7 days by Western blot analysis (reference value: 1.00); format: functional; details: time 7 day
[26] = Effect on cleaved PARP level in human COLO-668 cells assessed as fold change at 10 nM measured after 14 days by Western blot analysis (reference value: 1.00); format: functional; details: time 14 day
[27] = Toxicity in rat assessed as congestion in lymphoid organs measured for 28 days; details: in vivo, 672 h, time 28 day
[28] = Toxicity in rat assessed as neutrophenia measured for 28 days; details: in vivo, 672 h, time 28 day
NCI-H1417 [29] = experiment: Effect on cell cycle in human NCI-H1417 cells assessed as cell accumulation at […] phase upto 1000 nM measured for 7 to 14 days by flow cytometry; format: functional, cell-based; details: time 7-14 day
[30] = Effect on cleaved PARP level in human NCI-H526 cells assessed as relative expression at 1000 nM measured after 10 days by Western blot analysis (reference value: 0.81); format: functional; details: time 10 day
[31] = Effect on cleaved PARP level in human NCI-H524 cells assessed as fold change at 100 nM measured after 14 days by Western blot analysis (reference value: 1.00); format: functional; details: time 14 day
[32] = Effect on cleaved PARP level in human NCI-H526 cells assessed as relative expression at 10 nM measured after 14 days by Western blot analysis (reference value: 0.66); format: functional; details: time 14 day
[33] = Dose normalized AUC (0 to last) in mouse tumor at 5 mg/kg, po by HPLC/MS/MS analysis; format: ADME, organism-based, Neoplasm; details: in vivo
NCI-H1417 [34] = experiment: Antitumor activity against human NCI-H1417 cells xenografted in nude mouse assessed as mean tumor volume at 1.5 mg/kg, po administered daily measured twice weekly (reference value: 2262 +/- 299 mm3); format: functional
[35] = Effect on cleaved PARP level in human NCI-H2171 cells assessed as relative expression at 1000 nM measured after 14 days by Western blot analysis (reference value: 0.01); format: functional; details: time 14 day
[36] = Effect on cleaved PARP level in human NCI-H889 cells assessed as relative expression at 1000 nM measured after 14 days by Western blot analysis (reference value: 0.94); format: functional; details: time 14 day
NCI-H526 [37] = experiment: In vivo inhibition of LSD1 in human NCI-H526 cells xenografted in nude mouse assessed as change in FEZ1 gene expression measured after 24 hrs post single administration by qRT-PCR analysis; format: functional, organism-based; details: dose 0.06-135 mg/kg

SMILES: O=C(O)c1ccc(CN2CCC(CN[C@@H]3C[C@H]3c3ccccc3)CC2)cc1 [GSK2879552]
- fold change (FC) [1]: 1.37
- fold change (FC) [2]: 0.85
- growth inhibition (GI) (NCI-H1417 [3]): Dose-Dependent Effect
- Activity (NCI-H526 [4]): inactive
- Activity [5]: 1.36
- Activity [6]: Toxic
- inhibition (NCI-H1417 [7]): Dose-Dependent Effect
- Activity [8]: Toxic
- fold change (FC) [9]: 0.94
- Activity (NCI-H1417 [10]): Tde
- fold change (FC) [11]: 0.71
- Activity [12]: 0.16
- Activity [13]: 0.43
- fold change (FC) [14]: 1.11
- Activity [15]: 0.32
- fold change (FC) [16]: 0.88
- fold change (FC) [17]: 1.41
- inhibition (NCI-H526 [18]): Dose-Dependent Effect
- Activity [19]: Toxic
- Activity [20]: 0.02
- Activity [21]: 0.79
- fold change (FC) [22]: 1.09
- Activity [23]: 0.22
- fold change (FC) [24]: 1.32
- fold change (FC) [25]: 1.22
- fold change (FC) [26]: 0.41
- Activity [27]: Toxic
- Activity [28]: Toxic
- Activity (NCI-H1417 [29]): inactive
- Activity [30]: 1.15
- fold change (FC) [31]: 0.74
- Activity [32]: 0.48
- AUClast/dose [33]: 464 ng·h/mL/mg/kg
- Activity (NCI-H1417 [34]): 546 mm3
- Activity [35]: 0.02
- Activity [36]: 2.65
- inhibition (NCI-H526 [37]): Dose-Dependent Effect
